The test concerns the target Beta-lactamase CcrA (Bacteroides fragilis). Put plainly: Inhibitory activity against CCRA (Bacteroides fragilis) metallo-beta-lactamase.

In turn, `O=C(O)[C@H](S)Cc1ccc2oc3ccccc3c2c1` [(R)-3-Dibenzofuran-2-yl-2-mercapto-propionic acid] came in with an IC50 of 9.9 µM.

For the molecule `CC(=O)S[C@H](Cc1ccc2oc3ccccc3c2c1)C(=O)O` [(R)-2-Acetylsulfanyl-3-dibenzofuran-2-yl-propionic acid], the 50% inhibitory concentration (IC50) is > 500 µM.

In the case of `C[C@@H](NC(=O)c1ccccc1)C(=O)SCC(=O)O` [(R)-2-(2-benzamidopropanoylthio)acetic acid], the IC50 was > 1000 µM.

Turning to `CC(C)C(=O)N[C@H](C)C(=O)S[C@H](Cc1ccc(-c2ccccc2)cc1)C(=O)O` [(R)-3-Biphenyl-4-yl-2-((R)-2-isobutyrylamino-propionylsulfanyl)-propionic acid], the IC50 was > 1500 µM.

Molecule `C[C@@H](NC(=O)COc1ccccc1)C(=O)S[C@H](Cc1ccc(-c2ccccc2)cc1)C(=O)O` [(R)-3-Biphenyl-4-yl-2-[(R)-2-(2-phenoxy-acetylamino)-propionylsulfanyl]-propionic acid] had an IC50 of 930 µM.

`C[C@@H](NC(=O)c1ccccc1)C(=O)S[C@H](Cc1ccc(-c2ccccc2)cc1)C(=O)O` [(R)-2-((R)-2-Benzoylamino-propionylsulfanyl)-3-biphenyl-4-yl-propionic acid] registered an IC50 of 1000 µM.

`O=C(S[C@H](Cc1ccccc1)C(=O)O)c1ccccc1` [(R)-2-Benzoylsulfanyl-3-phenyl-propionic acid]: the 50% inhibitory concentration (IC50) is > 1000 µM.

As to `C[C@@H](NC(=O)c1ccccc1)C(=O)S[C@H](Cc1ccc2oc3ccccc3c2c1)C(=O)O` [(R)-2-((R)-2-Benzoylamino-propionylsulfanyl)-3-dibenzofuran-2-yl-propionic acid], the IC50 came out at 680 µM.

The molecule `O=C(O)[C@H](S)Cc1ccc(-c2ccccc2)cc1` [(R)-3-Biphenyl-4-yl-2-mercapto-propionic acid] displayed an IC50 of 750 µM.

`CC(=O)S[C@H](Cc1ccc(-c2ccccc2)cc1)C(=O)O` [(R)-2-Acetylsulfanyl-3-biphenyl-4-yl-propionic acid] had an IC50 of 750 µM.

`CCC(=O)N[C@H](C)C(=O)S[C@H](Cc1ccc(-c2ccccc2)cc1)C(=O)O` [(R)-3-Biphenyl-4-yl-2-((R)-2-propionylamino-propionylsulfanyl)-propionic acid]: the IC50 is > 1500 µM.

Take `C[C@@H](NC(=O)Cc1ccccc1)C(=O)S[C@H](Cc1ccc(-c2ccccc2)cc1)C(=O)O` [(R)-3-Biphenyl-4-yl-2-((R)-2-phenylacetylamino-propionylsulfanyl)-propionic acid]: the IC50 is > 1500 µM.

`C[C@@H](NC(=O)CCC(=O)O)C(=O)S[C@H](Cc1ccc(-c2ccccc2)cc1)C(=O)O` [N-[(R)-1-((R)-2-Biphenyl-4-yl-1-carboxy-ethylsulfanylcarbonyl)-ethyl]-succinamic acid]: the IC50 was > 1500 µM.

Take `CC(=O)N[C@H](C)C(=O)S[C@H](Cc1ccc(-c2ccccc2)cc1)C(=O)O` [(R)-2-((R)-2-Acetylamino-propionylsulfanyl)-3-biphenyl-4-yl-propionic acid]: the midpoint of inhibition, the IC50, lay at 1000 µM. This counts as millimolar.

With `CC(=O)S[C@H](Cc1ccccc1)C(=O)O` [(R)-2-Acetylsulfanyl-3-phenyl-propionic acid], the IC50 is > 1000 µM.

As for `C=CCOC(=O)N[C@H](C)C(=O)S[C@H](Cc1ccc2oc3ccccc3c2c1)C(=O)O` [(R)-2-((R)-2-Allyloxycarbonylamino-propionylsulfanyl)-3-dibenzofuran-2-yl-propionic acid], the IC50 is > 1500 µM.

As to `CC(=O)N[C@H](C)C(=O)S[C@H](Cc1ccccc1)C(=O)O` [(R)-2-((R)-2-Acetylamino-propionylsulfanyl)-3-phenyl-propionic acid], the IC50 is > 1000 µM.

Take `C[C@@H](NC(=O)Cc1cccc2ccccc12)C(=O)S[C@H](Cc1ccc(-c2ccccc2)cc1)C(=O)O` [(R)-3-Biphenyl-4-yl-2-[(R)-2-(2-naphthalen-1-yl-acetylamino)-propionylsulfanyl]-propionic acid]: the IC50 was > 1500 µM.

In general, IC50 refers to the concentration at which inhibition is half-maximal.

The values are drawn from BindingDB's records for doi:10.1016/s0960-894x(99)00425-4 (Merck Research Laboratorie, 1999).
